Patent publication US10239832B2, “N-(1-hydroxy-3-(pyrrolidinyl)propan-2-yl)pyrrolidine-3-carboxamide derivatives as glucosylceramide synthase inhibitors” (BIOMARIN PHARMACEUTICAL INC., priority 2013, dated 2019)

molecular target: T1, GCS (Canis lupus familiaris, UniProt A0A8I3MXG6); assay: GCS enzymatic assay (MDCK cell lysate, NBD-ceramide to glucosylceramide, LC/MS); type: biochemical, canine; conditions: Table 2; class symbols A, B, C; the table does not say which of the assays; read-out: Data Range (IC50 values)
T1 construct: endogenous in cells; host or cells: MDCK (Madin-Darby canine kidney) cells, whole-cell lysate
T1 sequence (A0A8I3MXG6 1-394): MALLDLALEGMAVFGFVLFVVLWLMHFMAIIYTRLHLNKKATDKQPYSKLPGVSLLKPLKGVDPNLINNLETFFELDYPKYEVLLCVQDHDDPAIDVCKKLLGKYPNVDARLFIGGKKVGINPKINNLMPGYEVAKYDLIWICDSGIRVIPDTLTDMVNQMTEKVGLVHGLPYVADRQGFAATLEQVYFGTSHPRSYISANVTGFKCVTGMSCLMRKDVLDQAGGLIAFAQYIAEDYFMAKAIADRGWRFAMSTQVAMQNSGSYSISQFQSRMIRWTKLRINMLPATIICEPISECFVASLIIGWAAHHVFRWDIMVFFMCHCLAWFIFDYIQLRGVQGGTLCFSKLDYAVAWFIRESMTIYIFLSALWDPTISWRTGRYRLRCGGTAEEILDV
Outline: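 Dog MDCK cell lysate served as enzyme source, with NBD-ceramide turned over to glucosylceramide and 0.1% DMSO as mock control. The reaction was stopped with acetonitrile. Both lipids were quantified by LC/MS/MS in ESI positive MRM mode against a tolbutamide internal standard, giving IC50 or percent inhibition.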

Row | IC50 [nM] | SMILES
1 | 1 to 30 | O=C(N[C@H](CN1CCCC1)[C@H](O)c1ccc(OC2CC2)c(Cl)c1)[C@@H]1CCN(c2ccccn2)C1 [Compound 54, (R)-N-((1R,2R)-1-(3-chloro-4-cyclopropoxyphenyl)-1-hydroxy-3-(pyrrolidin-1-yl)propan-2-yl)-1-(pyridin-2-yl)pyrrolidine-3-carboxamide]
2 | 1 to 30 | O=C(N[C@H](CN1CCCC1)[C@H](O)c1ccc(OC2CC2)c(Cl)c1)[C@H]1CCN(c2ccc(Cl)cn2)C1 [Compound 57A, (S)-N-((1R,2R)-1-(3-chloro-4-cyclopropoxyphenyl)-1-hydroxy-3-(pyrrolidin-1-yl)propan-2-yl)-1-(5-chloropyridin-2-yl)pyrrolidine-3-carboxamide]
3 | 1 to 30 | O=C(N[C@H](CN1CCCC1)[C@H](O)c1ccc(OCCN2CCC2)c(Cl)c1)[C@@H]1CCN(c2ccc(Cl)cc2)C1 [Compound 60, (R)-N-((1R,2R)-1-(4-(2-(azetidin-1-yl)ethoxy)-3-chlorophenyl)-1-hydroxy-3-(pyrrolidin-1-yl)propan-2-yl)-1-(4-chlorophenyl)pyrrolidine-3-carboxamide]
4 | 1 to 30 | Cn1ncc2ccc(N3CCC(C(=O)N[C@H](CN4CCCC4)[C@H](O)c4ccc5c(c4)OCCO5)C3)cc21 (stereo partly drawn) [Compound 61C, N-((1R,2R)-1-(2,3-dihydrobenzo[b][1,4]dioxin-6-yl)-1-hydroxy-3-(pyrrolidin-1-yl)propan-2-yl)-1-(1-methyl-1H-indazol-6-yl)pyrrolidine-3-carboxamide]
5 | 1 to 30 | Cn1ncc2ccc(N3CC[C@H](C(=O)N[C@H](CN4CCCC4)[C@H](O)c4ccc5c(c4)OCCO5)C3)cc21 [Compound 61D, (S)-N-((1R,2R)-1-(2,3-dihydrobenzo[b][1,4]dioxin-6-yl)-1-hydroxy-3-(pyrrolidin-1-yl)propan-2-yl)-1-(1-methyl-1H-indazol-6-yl)pyrrolidine-3-carboxamide]

same assay, conditions: Table 2; class symbols D, E, F, NA (not active); the table does not say which of the assays

Row | Data Range (% inhibition) | SMILES
6 | F (1-49% (or less than 50%)) | O=C(N[C@H](CN1CCCC1)[C@H](O)c1ccc(OC2CC2)c(Cl)c1)[C@H]1CCN(c2ccccn2)C1 [Compound 54A, (S)-N-((1R,2R)-1-(3-chloro-4-cyclopropoxyphenyl)-1-hydroxy-3-(pyrrolidin-1-yl)propan-2-yl)-1-(pyridin-2-yl)pyrrolidine-3-carboxamide]
7 | F (1-49% (or less than 50%)) | O=C(N[C@H](CN1CCCC1)[C@H](O)c1ccc2c(c1)OCCO2)[C@@H]1CCN(C2Cc3ccccc3C2)C1 [Compound 55, (R)-1-(2,3-dihydro-1H-inden-2-yl)-N-((1R,2R)-1-(2,3-dihydrobenzo[b][1,4]dioxin-6-yl)-1-hydroxy-3-(pyrrolidin-1-yl)propan-2-yl)pyrrolidine-3-carboxamide]
8 | F (1-49% (or less than 50%)) | O=C(N[C@H](CN1CCCC1)[C@H](O)c1ccc2c(c1)OCCO2)C1CCN(C2Cc3ccccc3C2)C1 (stereo partly drawn) [Compound 55A, 1-(2,3-dihydro-1H-inden-2-yl)-N-((1R,2R)-1-(2,3-dihydrobenzo[b][1,4]dioxin-6-yl)-1-hydroxy-3-(pyrrolidin-1-yl)propan-2-yl)pyrrolidine-3-carboxamide]
9 | F (1-49% (or less than 50%)) | O=C(N[C@H](CN1CCCC1)[C@H](O)c1ccc2c(c1)OCCO2)[C@H]1CCN(C2Cc3ccccc3C2)C1 [Compound 55B, (S)-1-(2,3-dihydro-1H-inden-2-yl)-N-((1R,2R)-1-(2,3-dihydrobenzo[b][1,4]dioxin-6-yl)-1-hydroxy-3-(pyrrolidin-1-yl)propan-2-yl)pyrrolidine-3-carboxamide]
10 | F (1-49% (or less than 50%)) | O=C(N[C@H](CN1CCCC1)[C@H](O)c1ccc2c(c1)OCCO2)[C@@H]1CCN(c2ccnc(OC3CC3)c2)C1 [Compound 56, (R)-1-(2-cyclopropoxypyridin-4-yl)-N-((1R,2R)-1-(2,3-dihydrobenzo[b][1,4]dioxin-6-yl)-1-hydroxy-3-(pyrrolidin-1-yl)propan-2-yl)pyrrolidine-3-carboxamide]
11 | F (1-49% (or less than 50%)) | O=C(N[C@H](CN1CCCC1)[C@H](O)c1ccc2c(c1)OCCO2)C1CCN(c2ccnc(OC3CC3)c2)C1 (stereo partly drawn) [Compound 56D, 1-(2-cyclopropoxypyridin-4-yl)-N-((1R,2R)-1-(2,3-dihydrobenzo[b][1,4]dioxin-6-yl)-1-hydroxy-3-(pyrrolidin-1-yl)propan-2-yl)pyrrolidine-3-carboxamide]
12 | F (1-49% (or less than 50%)) | O=C(N[C@H](CN1CCCC1)[C@H](O)c1ccc2c(c1)OCCO2)[C@H]1CCN(c2ccnc(OC3CC3)c2)C1 [Compound 56E, (S)-1-(2-cyclopropoxypyridin-4-yl)-N-((1R,2R)-1-(2,3-dihydrobenzo[b][1,4]dioxin-6-yl)-1-hydroxy-3-(pyrrolidin-1-yl)propan-2-yl)pyrrolidine-3-carboxamide]
13 | F (1-49% (or less than 50%)) | O=C(N[C@H](CN1CCCC1)[C@H](O)c1ccc(OC2CC2)c(Cl)c1)[C@@H]1CCN(c2ccc(Cl)cn2)C1 [Compound 57, (R)-N-((1R,2R)-1-(3-chloro-4-cyclopropoxyphenyl)-1-hydroxy-3-(pyrrolidin-1-yl)propan-2-yl)-1-(5-chloropyridin-2-yl)pyrrolidine-3-carboxamide]
14 | E (50-74% (or less than 75%)) | O=C(N[C@H](CN1CCCC1)[C@H](O)c1ccc2c(c1)OCCO2)[C@@H]1CCN(c2ccc(OC3CC3)nc2)C1 [Compound 58, (R)-1-(6-cyclopropoxypyridin-3-yl)-N-((1R,2R)-1-(2,3-dihydrobenzo[b][1,4]dioxin-6-yl)-1-hydroxy-3-(pyrrolidin-1-yl)propan-2-yl)pyrrolidine-3-carboxamide]
15 | F (1-49% (or less than 50%)) | O=C(N[C@H](CN1CCCC1)[C@H](O)c1ccc2c(c1)OCCO2)[C@H]1CCN(c2ccc(OC3CC3)nc2)C1 [Compound 58D, (S)-1-(6-cyclopropoxypyridin-3-yl)-N-((1R,2R)-1-(2,3-dihydrobenzo[b][1,4]dioxin-6-yl)-1-hydroxy-3-(pyrrolidin-1-yl)propan-2-yl)pyrrolidine-3-carboxamide]
16 | F (1-49% (or less than 50%)) | O=C(N[C@H](CN1CCCC1)[C@H](O)c1ccc(OC2COC2)c(Cl)c1)[C@@H]1CCN(c2ccc(Cl)cc2)C1 [Compound 59, (R)-N-((1R,2R)-1-(3-chloro-4-(oxetan-3-yloxy)phenyl)-1-hydroxy-3-(pyrrolidin-1-yl)propan-2-yl)-1-(4-chlorophenyl)pyrrolidine-3-carboxamide]
17 | F (1-49% (or less than 50%)) | CN1CCc2ccc(N3CC[C@@H](C(=O)N[C@H](CN4CCCC4)[C@H](O)c4ccc5c(c4)OCCO5)C3)cc2C1 [Compound 63, (R)-N-((1R,2R)-1-(2,3-dihydrobenzo[b][1,4]dioxin-6-yl)-1-hydroxy-3-(pyrrolidin-1-yl)propan-2-yl)-1-(2-methyl-1,2,3,4-tetrahydroisoquinolin-7-yl)pyrrolidine-3-carboxamide]
18 | F (1-49% (or less than 50%)) | CN1CCc2ccc(N3CCC(C(=O)N[C@H](CN4CCCC4)[C@H](O)c4ccc5c(c4)OCCO5)C3)cc2C1 (stereo partly drawn) [Compound 63C, N-((1R,2R)-1-(2,3-dihydrobenzo[b][1,4]dioxin-6-yl)-1-hydroxy-3-(pyrrolidin-1-yl)propan-2-yl)-1-(2-methyl-1,2,3,4-tetrahydroisoquinolin-7-yl)pyrrolidine-3-carboxamide]

Row | SMILES | Data Range (% inhibition)
19 | O=C(N[C@H](CN1CCCC1)[C@H](O)c1ccc(OCCN2CCC2)c(Cl)c1)[C@H]1CCN(c2ccc(Cl)cc2)C1 [Compound 60A, (S)-N-((1R,2R)-1-(4-(2-(azetidin-1-yl)ethoxy)-3-chlorophenyl)-1-hydroxy-3-(pyrrolidin-1-yl)propan-2-yl)-1-(4-chlorophenyl)pyrrolidine-3-carboxamide] | NA (not active—a negative value was generated for % inhibition)
20 | Cn1ncc2ccc(N3CC[C@@H](C(=O)N[C@H](CN4CCCC4)[C@H](O)c4ccc5c(c4)OCCO5)C3)cc21 [Compound 61, (R)-N-((1R,2R)-1-(2,3-dihydrobenzo[b][1,4]dioxin-6-yl)-1-hydroxy-3-(pyrrolidin-1-yl)propan-2-yl)-1-(1-methyl-1H-indazol-6-yl)pyrrolidine-3-carboxamide] | NA (not active—a negative value was generated for % inhibition)
21 | O=C(N[C@H](CN1CCCC1)[C@H](O)c1ccc(OC2COC2)nc1)[C@@H]1CCN(c2ccc(Cl)cc2)C1 [Compound 62, (R)-1-(4-chlorophenyl)-N-((1R,2R)-1-hydroxy-1-(6-(oxetan-3-yloxy)pyridin-3-yl)-3-(pyrrolidin-1-yl)propan-2-yl)pyrrolidine-3-carboxamide] | NA (not active—a negative value was generated for % inhibition)
22 | CN1CCc2ccc(N3CC[C@H](C(=O)N[C@H](CN4CCCC4)[C@H](O)c4ccc5c(c4)OCCO5)C3)cc2C1 [Compound 63D, (S)-N-((1R,2R)-1-(2,3-dihydrobenzo[b][1,4]dioxin-6-yl)-1-hydroxy-3-(pyrrolidin-1-yl)propan-2-yl)-1-(2-methyl-1,2,3,4-tetrahydroisoquinolin-7-yl)pyrrolidine-3-carboxamide] | NA (not active—a negative value was generated for % inhibition)
